These results are taken from patent US9732091B2, “Tryptophanol-derived oxazoloisoindolinones: small-molecule P53 activators” (UNIVERSIDADE DO PORTO, priority 2013, dated 2017).

For data set [1] the following is noted: Rippin et al. 2002; Jonhson et al. 2011; cited from earlier work.
In data set [2] the test system is HCT116 p53^+/+ cells. Nature of the data set: cell cycle analysis by flow cytometry (propidium iodide), HCT116 p53^+/+. In kind it is cell-based, human. The following applies: double GI50, 24 hours. Here is the method:
FIG. 3 illustrates the effect of SLMP53-1 on cell cycle progression of HCT116 p53^+/+ cells. Cell cycle phases were analyzed by flow cytometry using propidium iodide and quantified using ModFit LT software (Verity Software House Inc., Topsham, USA). Effect of compounds (double GI50) was analyzed after 24 hours treatment. Histograms represent one of two independent experiments; quantification of cell cycle phases represents the mean±S.E.M. of two independent experiments.

Another data set concerns HCT116 p53^−/−. In words: SRB growth inhibition assay in HCT116 p53^−/− colon carcinoma cells. In kind it is cell-based, human. As to conditions: 48 hours incubation, mean±S.E.M. Here is the method: (§1) Tumor cells were plated at 5.0×10^3 cells/well in 96-well plates and incubated for 24 hours. Cells were then exposed to serial dilutions of SLMP53-1, CP-31398 or PRIMA-1 (from 1.85 to 150 μM). The effect of the compounds was analyzed following 48 hours incubation, using the sulforhodamine B (SRB) assay. The solvent DMSO corresponding to the maximum concentration used in these assays (0.025%) was included as control. The GI50 value, the concentration of compound that causes 50% growth inhibition, was calculated for the tested compounds. Results are the mean±S.E.M. of three independent experiments.

A further data set concerns MDA-MB-231 cells. In words: apoptosis by flow cytometry (FITC-Annexin V and propidium iodide), MDA-MB-231. It counts as cell-based, human. The following applies: GI50, 24 hours. Here is the method: Apoptosis was analyzed by flow cytometry using FITC-Annexin V and propidium iodide. The effect of compounds was analyzed after 24 hours treatment using the concentration of GI50. Histograms represent one of two independent experiments; quantification of cells in apoptosis represents the mean±S.E.M. of two independent experiments.
(A flow cytometer gives signals particle by particle.)

For another data set, the system named is HCT116 p53^+/+. Nature of the data set: SRB growth inhibition assay in HCT116 p53^+/+ colon carcinoma cells. It counts as cell-based, human. The following applies: for GI50: HCT116 p53^+/+, 48 hours incubation, SRB, mean±S.E.M. Here is the method: as §1
In data set [3] the test system is HCT116 p53^+/+ cells. Nature of the data set: apoptosis by flow cytometry (FITC-Annexin V and propidium iodide), HCT116 p53^+/+. The following applies: GI50 and double GI50, 24 hours. In kind it is cell-based, human. Here is the method: Apoptosis was analyzed by flow cytometry using FITC-Annexin V and propidium iodide. The effect of compounds was analyzed after 24 hours treatment using the concentration of GI50 and double GI50. Histograms represent one of two independent experiments; quantification of cells in apoptosis represents the mean±S.E.M. of two independent experiments.

Another data set relates to MDA-MB-231 (p53R280K). In words: SRB growth inhibition assay in MDA-MB-231 breast cancer cells. The following applies: 48 hours incubation, mean±S.E.M. It counts as cell-based, human. Here is the method:
as §1, with “7.5×10^3” for “5.0×10^3”, “incubation period,” for “incubation,”, “value, which is” for “value,”

A further data set addresses T1, human wt p53 (Homo sapiens, UniProt P04637).
T1 construct: expressed in transfected cells
Nature of the data set: yeast-based assay, yeast cells expressing human wt p53 (growth by CFU counts, cell cycle, actin Western blot). Here is the method: FIG. 1 illustrates that SLMP53-1 and SLMP53-2 increase the p53 effects in yeast. Yeast cells expressing human wt p53 and transformed with the empty vector (control yeast) were incubated in selective induction medium in the presence of 0.1-25 μM compound or DMSO only, for 42 hours. (A) Effect of 10 μM SLMP53-1 and SLMP53-2 on the p53-induced yeast growth inhibition. Results are plotted setting as one unit the p53-induced growth inhibition in the presence of DMSO only. Growth was estimated by colony-forming unit (CFU) counts. […] (B) Dose-response curve for SLMP53-1 in yeast cells expressing human p53 and control yeast. Cells were incubated in selective medium with 0.1-25 μM of SLMP53-1 or DMSO only. Results are plotted setting as 100% growth inhibition the number of CFU obtained in the presence of DMSO only. Data are mean±S.E.M. of three independent experiments (*P<0.05; unpaired Student's t-test). (C) Effect of SLMP53-1 and SLMP53-2 on p53-induced S-phase cell cycle arrest in yeast. Cell cycle phases were analyzed by flow cytometry using Sytox Green and quantified using ModFit LT software; quantification of cell cycle phases represent the mean values. (D) Increase of p53-induced actin protein expression levels by SLMP53-1 and SLMP53-2 in yeast expressing p53. Western Blot band intensity was quantified using Pgk1p as loading control (with Bio-Profile Bio-1D++ software).
Using a yeast-based screening approach, the chiral compounds SLMP53-1 and SLMP53-2 were identified as potential activators of wt p53, from a chemical library of tryptophanol-derived oxazoloisoindolinones with general formula (I) shown in FIG. 1, wherein X, R^1, R^2, R^3, R^4, R^5, R^6, R^7, R^8, R^9 and R^10 are as defined herein, as well as their stereoisomers, enantiomers, ra.cemates, tautomers thereof or mixtures thereof; or a pharmaceutically acceptable salt, solvate or prodrug thereof. In the yeast cell model, compounds SLMP53-1 and SLMP53-2 increased the previously reported (Coutinho et al. FEBS Lett. 2009, 583, 3582-3588) p53-induced growth inhibition (FIGS. 1A and B) and S-phase cell cycle arrest (FIG. 1C).
A general note: A western blot detects proteins with antibodies after separation by electrophoresis.

[4] abbreviates: HCT116 p53^+/+ vs HCT116 p53^−/−.

T1 sequence (P04637 whole entry): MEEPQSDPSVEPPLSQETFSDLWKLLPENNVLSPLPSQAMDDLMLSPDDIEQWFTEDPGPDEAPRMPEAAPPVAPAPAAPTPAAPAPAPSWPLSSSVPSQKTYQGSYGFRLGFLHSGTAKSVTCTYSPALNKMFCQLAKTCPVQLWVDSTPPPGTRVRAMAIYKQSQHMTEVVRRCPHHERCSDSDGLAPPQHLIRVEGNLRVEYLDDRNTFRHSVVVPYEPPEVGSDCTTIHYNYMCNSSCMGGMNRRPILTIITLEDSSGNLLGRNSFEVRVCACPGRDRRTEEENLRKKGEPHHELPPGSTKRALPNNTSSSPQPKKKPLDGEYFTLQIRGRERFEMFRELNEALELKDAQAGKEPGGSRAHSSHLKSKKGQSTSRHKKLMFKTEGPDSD

`COc1ccc(/C=C/c2nc(NCCCN(C)C)c3ccccc3n2)cc1` [CP-31398]: the “cytotoxic and genotoxic effects (reported)” value in data set [1] was “cytotoxic and genotoxic effects have been reported”. The cell cycle progression entry in the data set on HCT116 p53^+/+ cells [2] is listed as “G0/G1-phase cell arrest”. The figures for the GI50 with HCT116 p53^−/−, with HCT116 p53^+/+ and in the data set with MDA-MB-231 (p53R280K) were 7.3 ± 0.6 µM, 3.4 ± 0.1 µM and 2.3 ± 0.9 µM, respectively. Besides, the apoptosis entry with MDA-MB-231 cells and with HCT116 p53^+/+ cells [3] was “apoptotic cell death” each time. For the same compound, the “GI50 in HCT116 p53^+/+ cells lower than in HCT116 p53^−/− cells” value with HCT116 p53^+/+ (setting [4]) was determined as 2 fold. Also, the “p53 dependence of anti-proliferative effect” value in the data set on HCT116 p53^+/+ (setting [4]) is given as “p53-dependent anti-proliferative effect”.
As for `O=C1C2CCN(CC2)C1(CO)CO` [PRIMA-1], the figures for the GI50 in the data set with HCT116 p53^−/−, in the data set with HCT116 p53^+/+ and with MDA-MB-231 (p53R280K) were 13.1 ± 2 µM, 19.9 ± 4 µM and 29.8 ± 3.1 µM, respectively. Also, the apoptosis result in the data set on MDA-MB-231 cells was “apoptotic cell death”. Besides, the “p53 dependence of anti-proliferative effect” value with HCT116 p53^+/+ (setting [4]) is given as “p53-independent”.
Turning to `C[C@@]12OC[C@@H](Cc3c[nH]c4ccccc34)N1C(=O)c1ccccc12` [SLMP53-2], the p53-induced growth inhibition entry at human wt p53 (yeast expressing human wt p53, 10 μM, 42 hours, vs DMSO only) is listed as “increased”. Moreover, at human wt p53 (yeast expressing human wt p53, flow cytometry), the “p53-induced S-phase cell cycle arrest” value was “increased”. Further, the actin protein levels result on human wt p53 (yeast expressing p53, Western blot, vs DMSO only) was “increased the actin protein levels”.
